Each structure is given as a SMILES string.

The test system of assay [1] is TRKA. The experiment in a line: TRKA Enzymatic Assay. In kind it is biochemical. In short, it runs like this: (§1)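 Reaction contained 0.58 nM TRKA, 1 mM ATP, 500 nM biotinylated TK substrate and 62.5 nM SEB reagent in HEPES 50 mM pH 7.0 with 10 mM MgCl2, 1 mM DTT and 0.1 mM orthovanadate, 0.5% DMSO, ATP-initiated. After 60 min at room temperature, the TR-FRET 665/620 nm ratio was read. IC50 was fitted from percent control activity versus log concentration, with DMSO and no-ATP wells as controls.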

Assay [2] has as its target TRKA (Homo sapiens (Human), UniProt P04629). Briefly: TRKA Enzymatic Assay. In kind it is biochemical. The note with it: 1 mM ATP. In short, it runs like this: as §1
Assay [3] addresses FLT3 (Homo sapiens (Human), UniProt P36888). Briefly: FLT3 Enzymatic Assay. The note with it: 1 mM ATP. Format: biochemical. In short, it runs like this:
(§2)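 Room-temperature HTRF kinase assay (665/620 nm ratio) with 0.011 nM FLT3, 1 mM ATP, 500 nM biotinylated TK substrate in HEPES pH 7.0 buffer with MgCl2 and DTT; 0.5% DMSO final. Read after 60 min incubation; IC50 fitted from percent control activity versus log concentration, no-ATP wells as negative control.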

For assay [4], the system named is FLT3. Briefly: FLT3 Enzymatic Assay. Format: biochemical. In outline:
as §2

Assay [5] deals with pSTAT5 in SET-2 cells in whole blood. The experiment in a line: pSTAT5 SET-2 Whole Blood MSD Assay. In kind it is cell-based. Particulars: Homo sapiens, 2 hour incubation, read-out: SET2 WB IC50. The procedure: SET-2 cells shipped from ABS, RPMI1640 medium, Fetal Bovine Serum from Gibco, Phospho-STAT5a,b Whole Cell Lysate Kit from Mesoscale, Retronectin (Recombinant Human Fibronectin Fragment) from TaKaRa, 96 well cell culture plate flat bottom from Corning, lysis buffer from Cell Signaling Technology, and sterile PBS from Gibco. Whole Blood from by BioIVT.
SET-2 cells were cultured in RPMI media with 20% FBS at 37° C. humidified incubator supplied with 5% CO2. On the day of the assay, 40 uL per well of diluted retronectin working solution was added to sterile 96-well clear flat bottom tissue culture plates (1:200 dilution of retronectin in sterile PBS) and incubated at 37 C for 1 hour. After 1 hour, the retronectin working solution was aspirated and SET-2 cells were seeded at 100,000/well in RPMI+20% FBS. Cells were incubated overnight at 37° C. and 5% CO2. The next day, the medium was removed and 40 μL of diluted compounds in serum-free RPMI and whole blood was added to the cells for a 2 hour incubation at 37° C. and 5% CO2. The compound starting concentration is 20 μM and 2.5 fold serial diluted down to 0.21 nM. The whole blood and compound mixture was then aspirated off using the BlueCat plate washer and washed 1× with PBS. Cells were lysed by adding 40 μL of 3× complete lysis buffer and shaken at room temperature for 45-60 minutes (complete lysis buffer consists of Cell Signaling Technology lysis buffer diluted to 3× and supplemented with Mesoscale's protease inhibitor, phosphatase I inhibitor, and phosphatase II inhibitor). The pSTAT5 MSD plates were blocked by adding 150 μL of Blocker A solution per well to the MSD plates and incubated at room temperature with shaking at 400 rpm for one hour or longer. After blocking, plates were washed 3× with 300 μL/well of 1× Tris Wash Buffer. After lysis, added 25 μL per well of lysed sample was added to MSD plate and incubated with shaking at 4° C. wrapped in foil overnight. The next day, plates were washed again and 25 μL/well of diluted 1× Detection Antibody Solution, wrapped in foil, and incubated at room temperature with shaking at 400 rpm for 1 hour. Plates were then washed again and lastly, 150 μL/well of 1× Read Buffer T was added to all wells. Plates were analyzed on MSD Discovery within 5 minutes. […] Data analysis was performed in GraphPad Prism using a 4-parameter fit and data was reported as Average±SD.

Assay [6] has as its target pseudo-kinase domain (JH2) of human V617F mutant JAK2 (Homo sapiens (Human), UniProt O60674, F794H/V617F/W659A/W777A). Briefly: JAK2 LanthaScreen JH2-V617F Binding Assay. Particulars: read-out: JH2 V617F Bind IC50. In outline: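 Biotinylated His-Avi JAK2 JH2 (aa 536-812, V617F plus W659A/W777A/F794H; 0.26 nM) incubated 1 h at 25 °C with compound, 50 nM fluorescent JH2 tracer and 0.25 nM streptavidin-Tb in Tris pH 7.5 buffer. TR-FRET tracer displacement read; nonspecific binding with 2 mM ATP; IC50 from four-parameter fit.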

TRKA (Homo sapiens (Human), UniProt P04629), sequence (P04629 33-796, species assumed): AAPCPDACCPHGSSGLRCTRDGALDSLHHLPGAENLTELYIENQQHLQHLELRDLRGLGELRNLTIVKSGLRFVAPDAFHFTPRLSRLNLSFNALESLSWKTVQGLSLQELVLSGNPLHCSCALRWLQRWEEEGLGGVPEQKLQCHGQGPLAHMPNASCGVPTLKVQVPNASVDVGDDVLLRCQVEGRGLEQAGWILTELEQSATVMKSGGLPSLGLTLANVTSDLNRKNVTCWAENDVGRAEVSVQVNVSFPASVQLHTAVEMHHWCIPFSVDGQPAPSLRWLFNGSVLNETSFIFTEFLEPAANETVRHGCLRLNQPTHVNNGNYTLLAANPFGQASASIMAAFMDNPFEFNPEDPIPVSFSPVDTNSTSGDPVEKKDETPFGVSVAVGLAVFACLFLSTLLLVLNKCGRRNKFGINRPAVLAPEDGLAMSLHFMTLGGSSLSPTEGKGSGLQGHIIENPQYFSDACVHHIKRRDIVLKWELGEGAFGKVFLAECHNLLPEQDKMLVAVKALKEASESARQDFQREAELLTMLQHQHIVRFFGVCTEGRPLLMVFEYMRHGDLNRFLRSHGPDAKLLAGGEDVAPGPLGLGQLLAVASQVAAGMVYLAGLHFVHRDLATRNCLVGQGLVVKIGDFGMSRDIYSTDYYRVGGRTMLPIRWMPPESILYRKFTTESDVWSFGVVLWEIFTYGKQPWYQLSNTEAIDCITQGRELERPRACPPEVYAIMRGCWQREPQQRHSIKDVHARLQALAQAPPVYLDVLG
pseudo-kinase domain (JH2) of human V617F mutant JAK2, sequence (O60674 536-812 V617F/W659A/W777A/F794H): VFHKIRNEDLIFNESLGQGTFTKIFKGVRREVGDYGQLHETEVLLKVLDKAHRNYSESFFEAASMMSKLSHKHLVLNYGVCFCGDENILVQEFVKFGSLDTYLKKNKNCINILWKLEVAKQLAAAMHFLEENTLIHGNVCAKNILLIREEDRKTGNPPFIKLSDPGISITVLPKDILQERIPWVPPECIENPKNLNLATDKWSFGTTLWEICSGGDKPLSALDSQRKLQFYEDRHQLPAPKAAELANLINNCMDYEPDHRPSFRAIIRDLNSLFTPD
FLT3 (Homo sapiens (Human), UniProt P36888), sequence (P36888 27-993, species assumed): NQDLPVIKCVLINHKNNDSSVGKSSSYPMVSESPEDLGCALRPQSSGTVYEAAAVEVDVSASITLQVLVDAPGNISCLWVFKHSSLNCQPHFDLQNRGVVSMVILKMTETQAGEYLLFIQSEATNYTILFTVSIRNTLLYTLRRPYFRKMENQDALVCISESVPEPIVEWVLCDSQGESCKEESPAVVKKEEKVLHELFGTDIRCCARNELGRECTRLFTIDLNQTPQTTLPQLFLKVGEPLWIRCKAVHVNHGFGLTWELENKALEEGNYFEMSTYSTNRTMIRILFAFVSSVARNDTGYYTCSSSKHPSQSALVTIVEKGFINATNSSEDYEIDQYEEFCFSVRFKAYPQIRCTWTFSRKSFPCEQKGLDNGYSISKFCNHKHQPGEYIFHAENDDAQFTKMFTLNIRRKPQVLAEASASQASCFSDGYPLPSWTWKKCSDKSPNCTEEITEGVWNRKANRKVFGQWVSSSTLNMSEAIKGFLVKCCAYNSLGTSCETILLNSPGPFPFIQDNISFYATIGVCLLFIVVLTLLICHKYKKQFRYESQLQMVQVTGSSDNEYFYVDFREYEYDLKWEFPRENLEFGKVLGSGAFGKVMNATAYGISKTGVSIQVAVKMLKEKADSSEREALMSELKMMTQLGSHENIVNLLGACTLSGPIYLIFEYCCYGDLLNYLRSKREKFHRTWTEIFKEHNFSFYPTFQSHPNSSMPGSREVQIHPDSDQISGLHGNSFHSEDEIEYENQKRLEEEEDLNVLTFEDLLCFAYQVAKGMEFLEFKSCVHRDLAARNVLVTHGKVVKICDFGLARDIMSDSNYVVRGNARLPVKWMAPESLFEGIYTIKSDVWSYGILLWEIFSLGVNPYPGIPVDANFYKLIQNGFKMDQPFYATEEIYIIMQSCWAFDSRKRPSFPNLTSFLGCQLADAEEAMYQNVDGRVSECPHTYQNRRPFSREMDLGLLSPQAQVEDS

As for `[2H]C([2H])([2H])N(Cc1ccc(-c2[nH]c3ncc4c(c3c2-c2ccc3c(c2)COC3(C)C)n([C@@H]2CC[C@@H](NC(=O)OC)C2)c(=O)n4C([2H])([2H])[2H])cc1)C([2H])([2H])[2H]` [Example 29, Methyl ((1R,3R)-3-(7-(4-((bis(methyl-d3)amino)methyl)phenyl)-8-(1,1-dimethyl-1,3-dihydroisobenzofuran-5-yl)-3-(methyl-d3)-2-oxo-3,6-dihydroimidazo[4,5-d]pyrrolo[2,3-b]pyridin-1(2H)-yl)cyclopentyl)carbamate], the “Selectivity TRKA/JH2 V617F” value in the assay with TRKA [1] is reported as “****** (selectivity of >12500-fold)”. In addition, the IC50 at TRKA [2] is 1250 to 2500 nM; against FLT3 [3] it was 250 to 1250 nM; in assay [5] it was ≤ 2500 nM; in assay [6] it was ≤ 10 nM. Besides, the “Selectivity FLT3/JH2 V617F” value in the assay on FLT3 [4] is given as “**** (selectivity of >1750-fold to ≤5000-fold)”.

On to `[2H]C([2H])([2H])n1c(=O)n([C@@H]2CC[C@@H](NC(=O)OC)C2)c2c3c(-c4ccc5c(c4)COC5(C)C)c(-c4ccc(C(=O)N(C)C)cc4)[nH]c3ncc21` [Example 30, methyl ((1R,3R)-3-(8-(1,1-dimethyl-1,3-dihydroisobenzofuran-5-yl)-7-(4-(dimethylcarbamoyl)phenyl)-3-(methyl-d3)-2-oxo-3,6-dihydroimidazo[4,5-d]pyrrolo[2,3-b]pyridin-1(2H)-yl)cyclopentyl)carbamate], for which the “Selectivity TRKA/JH2 V617F” value with TRKA [1] was “***** (selectivity of >5000-fold to ≤12500-fold)”. Also, the IC50 at TRKA [2] is 250 to 1250 nM; on FLT3 [3], 250 to 1250 nM; in assay [5] it was ≤ 2500 nM; in assay [6] it was ≤ 10 nM. Further, the “Selectivity FLT3/JH2 V617F” value in the assay with FLT3 [4] is “***** (selectivity of >5000-fold to ≤12500-fold)”.

Values taken from patent US20250092044A1, “Kinase Inhibitors” (Incyte Corporation, priority 2023, published 2025).
